Assay results from article PMC4702177, “Discovering new mTOR inhibitors for cancer treatment through virtual screening methods and in vitro assays” (Scientific Reports, 2016).

Tests used:
Format in all cases: cell-based, human
[1] = test system: caspase-3 activation and PARP cleavage in HeLa cells; experiment: Western blot of apoptosis markers; settings: 24 h, compared with control
Protocol: To elucidate the mechanisms of cell death induced by 17, we analyzed the effect of 17 on nuclear morphology using Hoechst 33342 staining. […] This observation allowed for clear discrimination of treated cells from untreated non-apoptotic HeLa cells, which have a normal, round, and unpunctuated nucleus. […] The percentage of apoptotic HeLa cells were 6.5% and 7.7% at the concentrations of 2.74 and 5.48 μM, respectively (Fig. 6d). To further confirm the nuclear morphology observation, Western blotting was used to detect caspase-3 activation and PARP cleavage, two biochemical markers of apoptosis. […] The induction of apoptosis is positively correlated with the concentration of compound 17.
[…] Samples were prepared by lysing PBS-washed cells with RIPA buffer (Beyotime, Haimen, China) consisting of 1% Nonidet P-40, 0.5% sodium deoxycholate, 0.1% SDS, and 50 mM Tris-HCl, pH 7.4, supplemented with NaF, NaVO4, EDTA and a protease inhibitor cocktail (Roche). Proteins were subjected to SDS-PAGE gel electrophoresis and transferred onto a polyvinylidene difluoride membrane (Hybond-P; GE Healthcare Life Sciences, Piscataway, NJ). […] The densitometry of each band was quantified by FluorChem 8000 (AlphaInnotech, San Leandro, CA).

[2] = test system: mTORC2 (Akt phosphorylation on Ser473) in HeLa cells; experiment: Western blot of mTORC2 activity
Protocol: Accordingly, we checked mTORC2 activity by measuring Akt phosphorylation levels on Ser473 in HeLa cells. […] In other words, the mechanism of HeLa cell death induced by 17 was apoptosis, and induction was achieved by targeting both mTORC1 and mTORC2 simultaneously.
(§1) HeLa cells were cultured in a six-well plate in the presence of compound 17 for 48 h. Samples were prepared by lysing PBS-washed cells with RIPA buffer (Beyotime, Haimen, China) consisting of 1% Nonidet P-40, 0.5% sodium deoxycholate, 0.1% SDS, and 50 mM Tris-HCl, pH 7.4, supplemented with NaF, NaVO4, EDTA and a protease inhibitor cocktail (Roche). Proteins were subjected to SDS-PAGE gel electrophoresis and transferred onto a polyvinylidene difluoride membrane (Hybond-P; GE Healthcare Life Sciences, Piscataway, NJ). Immunoblotting was performed using rabbit monoclonal antibodies (Cell Signaling Technology; Danvers, MA) against p70S6K1 phosphorylated on Thr 389 (#9234) and total p70S6K1 (#2708), 4E-BP1 phosphorylated on Thr 37 (#2855) and total 4E-BP1 (#9452), Akt phosphorylated on Thr 308 (#4056) or Ser 473 (#4060) and total Akt (#4685), cleaved caspase-3 (#9664), PARP (#9532), and β-actin (#3700). […] The densitometry of each band was quantified by FluorChem 8000 (AlphaInnotech, San Leandro, CA).

[3] = test system: PI3K pathway (Akt phosphorylation on Thr308) in HeLa cells; experiment: Western blot of PI3K pathway; settings: compared with the controls
Protocol: To evaluate whether compound 17 inhibits the PI3K pathway, the Akt phosphorylation level on Thr308 was determined.
as §1

Nc1nn2c(nc(N)c3c(N)n[nH]c32)c1/N=N/c1ccccc1 [Compound 17]
levels of cleaved (activated) caspase-3 and PARP [1]: markedly increased | P-Akt Ser473 [2]: can reduce P-Akt Ser473 | P-Akt Thr308 [3]: not affected
